{
  "source": "patent US12378268B2",
  "about": "“Heterocyclic THR-β receptor agonist compound and preparation method and use therefor” (Hepagene Therapeutics (HK) Limited, priority 2019, dated 2025)",
  "key": {"[1]": {"experiment": "Drug metabolism experiment on prodrug in SD rats: plasma pharmacokinetic parameters", "assay_type": "in vivo", "conditions": "plasma; for AUC(0-inf) / AUC(0-t) / Tmax / half-life / Cmax: male, Sprague-Dawley (SD), rat, po, 3 mg/kg", "procedure": "(§1) Test 3: Drug metabolism experiment on prodrug in SD rats\n(§2) In the experiment, […] of 12 male SD rats having similar body weights were selected and orally administered compound 9, compound 10, and the control drug VK2809 (the prodrug of MB07444, structured as shown below) at a dose of 3 mg/kg at a single time, respectively, and blood and liver samples were collected at different time points.\n(§3) Solutions of compound 9/compound 10 and VK2809 with a final concentration of 0.6 mg/mL were respectively prepared, and the ratio between the solvents used for the preparation was PEG400: pure water =50:50 (v/v).\n(§4) No randomization was performed. The weights of the animals were measured before administration, and healthy animals with similar body weights were selected for inclusion in the experiment. The oral dose was 3 mg/kg.\n(§5) At least 0.2 mL of blood was collected from the tail vein or jugular vein, and heparin sodium was used as the anticoagulant.\n15 min, 30 min, 1 h, 2 h, 4 h, 6 h, 8 h, 24 h after administration.\n(§6) After being collected, a blood sample was placed in a marked ice-water bath centrifuge tube, plasma was quickly separated by centrifugation under centrifugation conditions: 3500 rpm, 10 minutes, and 4° C., and the plasma was stored under −40° C. for testing.\n(§7) Q TRAP6500 mass spectrometer with ESI source was used to perform negative ion MRM scanning. An LC-MS/MS analysis method was used to detect the contents of compound 9, compound 10 and its active metabolite 1, VK2809 and its active metabolite MB07444 in the plasma and liver. The metabolic kinetics data analysis software WinNonlin 7.0 was used to calculate the concentration data of plasma, and the non-compartmental model (NCA) method was used to calculate the pharmacokinetic parameters."}, "[2]": {"biological_target": "T1, THR-β (Homo sapiens, UniProt P10828)", "T1 construct": "TRB LBD, GST purchased from Thermo Fisher; purchased Thermo Fisher PV4762", "T1 sequence (P10828 217-461 limits assumed, other chains not shown)": "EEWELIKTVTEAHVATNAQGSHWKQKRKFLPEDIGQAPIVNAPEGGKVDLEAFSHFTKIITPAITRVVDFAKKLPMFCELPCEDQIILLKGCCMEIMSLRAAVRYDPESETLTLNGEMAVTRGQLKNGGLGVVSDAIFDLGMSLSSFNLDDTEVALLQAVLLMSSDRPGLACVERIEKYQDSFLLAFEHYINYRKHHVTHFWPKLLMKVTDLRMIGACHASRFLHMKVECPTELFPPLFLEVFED", "T1 sequence (P28702 whole entry partner, other chains not shown, the tested form may be a part)": "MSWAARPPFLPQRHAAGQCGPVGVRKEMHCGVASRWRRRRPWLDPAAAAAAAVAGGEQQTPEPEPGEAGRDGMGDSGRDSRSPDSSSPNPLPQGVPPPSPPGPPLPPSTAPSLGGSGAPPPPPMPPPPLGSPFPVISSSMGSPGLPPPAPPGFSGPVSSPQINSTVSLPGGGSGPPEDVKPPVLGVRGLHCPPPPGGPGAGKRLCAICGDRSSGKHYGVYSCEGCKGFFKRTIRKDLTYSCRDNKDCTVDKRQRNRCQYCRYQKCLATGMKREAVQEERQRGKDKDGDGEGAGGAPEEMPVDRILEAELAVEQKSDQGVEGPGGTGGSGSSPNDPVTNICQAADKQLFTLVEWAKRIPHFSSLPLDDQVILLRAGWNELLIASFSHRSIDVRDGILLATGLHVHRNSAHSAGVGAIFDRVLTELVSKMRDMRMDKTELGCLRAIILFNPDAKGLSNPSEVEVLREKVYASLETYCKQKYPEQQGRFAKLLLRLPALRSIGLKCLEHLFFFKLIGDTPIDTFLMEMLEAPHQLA", "experiment": "Test of the binding ability of the compound to TRβ (TRβ LBD/RXR, biotin-SRC2-2 co-activating peptide, 665/615 nm fluorescence ratio)", "assay_type": "biochemical", "procedure": "1. Main experimental materials and instruments:\nBiotin-SRC2-2 co-activating peptide purchased from Sangon Biotech (Shanghai) Co., Ltd.\nTRB LBD, GST purchased from Thermo Fisher (product No. PV4762)\nEuropium-conjugated anti-glutathione antibody purchased from Cisbio (product No. 61GSTKLB)\nStreptavidin-D2 purchased from Cisbio (product No. 610SADAB)\n(§8) 4.2 The activity percentage was calculated as follows: […]\n(§9) RatioCompound: Average of the relative ratios of the compound wells of the embodiments\n(§10) RatioPositive: Average of the relative ratios of all positive control wells.\n(§11) RatioBlank: Average of the relative ratios of all negative control wells.\n(§12) EC50 was calculated by fitting the relationship between activity (%) and compound logarithmic concentration with Graphpad 5.0 by a nonlinear regression method.\n(§13) Y=Bottom+ (top-bottom)/(1+10^((LogEC50−X)*slope))\n(§14) X: Compound logarithmic concentration Y: Percentage activity"}, "[3]": {"biological_target": "T2, THR-α (Homo sapiens, UniProt P10827)", "T2 construct": "TR-a LBD, GST purchased from Thermo Fisher; purchased Thermo Fisher PV4762", "T2 sequence (P10827 163-410 isoform P10827-2 limits assumed, other chains not shown)": "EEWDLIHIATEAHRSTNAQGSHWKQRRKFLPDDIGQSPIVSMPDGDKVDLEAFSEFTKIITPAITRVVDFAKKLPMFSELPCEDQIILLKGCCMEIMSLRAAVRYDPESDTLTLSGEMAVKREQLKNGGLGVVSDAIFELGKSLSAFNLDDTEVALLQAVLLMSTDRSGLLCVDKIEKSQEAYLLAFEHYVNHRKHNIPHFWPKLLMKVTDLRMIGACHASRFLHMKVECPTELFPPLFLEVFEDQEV", "T2 sequence (P19793 whole entry partner, other chains not shown, the tested form may be a part)": "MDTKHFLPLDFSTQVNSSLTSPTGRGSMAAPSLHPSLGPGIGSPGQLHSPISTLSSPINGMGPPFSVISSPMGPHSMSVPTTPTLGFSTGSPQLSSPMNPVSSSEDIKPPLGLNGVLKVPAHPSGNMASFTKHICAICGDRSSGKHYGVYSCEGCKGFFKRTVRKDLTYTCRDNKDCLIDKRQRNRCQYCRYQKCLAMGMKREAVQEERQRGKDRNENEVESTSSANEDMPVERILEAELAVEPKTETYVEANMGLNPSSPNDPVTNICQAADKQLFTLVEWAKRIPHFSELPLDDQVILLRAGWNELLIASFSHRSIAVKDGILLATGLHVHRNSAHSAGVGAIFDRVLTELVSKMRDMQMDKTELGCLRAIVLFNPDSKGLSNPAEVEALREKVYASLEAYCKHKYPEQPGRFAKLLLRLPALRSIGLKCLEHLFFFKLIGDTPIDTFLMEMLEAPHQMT", "experiment": "Test of the binding ability of the compound to TRα (TRα LBD/RXRα, biotin-SRC2-2 co-activating peptide, 665/615 nm fluorescence ratio)", "assay_type": "biochemical", "procedure": "as §8, §9, §10, §11, §12, §13, §14"}, "[4]": {"experiment": "Drug metabolism experiment on prodrug in SD rats: concentration in liver compared with blood", "assay_type": "in vivo", "conditions": "for Kp at 1 h / Kp at 4 h / Kp at 8 h / Kp at 24 h / concentration at 1 h / concentration at 4 h / concentration at 8 h / concentration at 24 h: male, rat, po, 3 mg/kg, SD rats; for Kp at 1 h / Kp at 4 h / Kp at 8 h / Kp at 24 h: read-out: Liver-to-blood ratio", "procedure": "as §1, §2, §3, §4, §5, §6\nAfter the liver sample was collected, its surface was washed with normal saline, dried with medical gauze, placed in a labeled small ziplock bag, and stored under −40° C. for testing.\nas §7\nThe parameters of concentration in the livers of the SD rats and a comparison with the concentration in plasma are shown in Table 3 below: […]"}, "[5]": {"conditions": "activity relative to positive control"}, "[6]": {"conditions": "Sprague-Dawley (SD), liver / plasma (heading prints blood), oral 3 mg/kg Compound 9"}, "[7]": {"conditions": "Sprague-Dawley (SD), liver / plasma (heading prints blood), oral 3 mg/kg Compound 10"}, "[8]": {"conditions": "Sprague-Dawley (SD), liver, oral 3 mg/kg Compound 9, read-out: Ct Liver"}, "[9]": {"conditions": "Sprague-Dawley (SD), liver, oral 3 mg/kg Compound 10, read-out: Ct Liver"}, "[10]": {"conditions": "Sprague-Dawley (SD), plasma (heading prints blood), oral 3 mg/kg Compound 10, read-out: Ct Blood"}, "[11]": {"conditions": "Sprague-Dawley, plasma, oral 3 mg/kg Compound 9, read-out: Ct Blood"}},
  "note": "Like-named read-outs stand apart in the source and are kept apart here.",
  "data": [
    {"smiles": "Cc1cc(OCP(=O)(O)O)cc(C)c1Cc1ccc(O)c2c1CCC2(C)C", "note": "[Compound 1, ((4-((7-hydroxy-1,1-dimethyl-2,3-dihydro-1H-indene-4-position)methyl)-3,5-dimethylphenoxy)methyl) phosphoric acid]", "values": [
      {"measurement": "AUC(0-inf)", "setting": "[1]; oral 3 mg/kg Compound 9", "result": 1350, "unit": "ng·h/mL"},
      {"measurement": "AUC(0-t)", "setting": "[1]; oral 3 mg/kg Compound 9", "result": 1290, "unit": "ng·h/mL"},
      {"measurement": "Tmax", "setting": "[1]; oral 3 mg/kg Compound 9", "result": 4.67, "unit": "h"},
      {"measurement": "half-life", "setting": "[1]; oral 3 mg/kg Compound 9", "result": 4.82, "unit": "h"},
      {"measurement": "AUC(0-inf)", "setting": "[1]; oral 3 mg/kg Compound 10", "result": 613, "unit": "ng·h/mL"},
      {"measurement": "AUC(0-t)", "setting": "[1]; oral 3 mg/kg Compound 10", "result": 586, "unit": "ng·h/mL"},
      {"measurement": "Tmax", "setting": "[1]; oral 3 mg/kg Compound 10", "result": 6.67, "unit": "h"},
      {"measurement": "half-life", "setting": "[1]; oral 3 mg/kg Compound 10", "result": 4.59, "unit": "h"},
      {"measurement": "Cmax", "setting": "[1]; oral 3 mg/kg Compound 9, read-out: Cmax", "result": 134, "unit": "ng/mL"},
      {"measurement": "Cmax", "setting": "[1]; oral 3 mg/kg Compound 10, read-out: Cmax", "result": 45.1, "unit": "ng/mL"},
      {"measurement": "Kel", "setting": "[1]; oral 3 mg/kg Compound 9", "result": 0.147, "unit": "h⁻¹"},
      {"measurement": "Kel", "setting": "[1]; oral 3 mg/kg Compound 10", "result": 0.154, "unit": "h⁻¹"},
      {"measurement": "EC50", "setting": "[2]", "result": 12, "unit": "nM"},
      {"measurement": "Emax", "setting": "[2]; [5]", "result": 104, "unit": "%"},
      {"measurement": "α/β selectivity (multiple)", "setting": "[2]; calculated after being standardized with T3", "result": 7.0, "unit": "multiple"},
      {"measurement": "activity for THR-β compared with MB07444", "setting": "[2]; in words", "result": "much higher than that of the contrast compound MB07444"},
      {"measurement": "EC50", "setting": "[3]", "result": 41, "unit": "nM"},
      {"measurement": "Emax", "setting": "[3]; [5]", "result": 96.4, "unit": "%"},
      {"measurement": "absolute concentration of active metabolite in the liver compared with control drug VK2809", "setting": "[4]; after prodrug compound 9, in words", "result": "higher than that of the control drug VK2809"},
      {"measurement": "liver-to-blood ratio compared with control drug", "setting": "[4]; after prodrug compound 10, in words", "result": "significantly higher than that of the control drug"},
      {"measurement": "absolute concentration of active metabolite in the liver compared with MB07444 from VK2809", "setting": "[4]; after prodrug compound 10, same prodrug dose, in words", "result": "at least three times that of the active metabolite drug MB07444"},
      {"measurement": "Kp at 1 h", "setting": "[4]; [6]", "result": 20.8},
      {"measurement": "Kp at 1 h", "setting": "[4]; [7]", "result": 29.1},
      {"measurement": "Kp at 4 h", "setting": "[4]; [6]", "result": 16.2},
      {"measurement": "Kp at 4 h", "setting": "[4]; [7]", "result": 20.6},
      {"measurement": "Kp at 8 h", "setting": "[4]; [6]", "result": 25.5},
      {"measurement": "Kp at 8 h", "setting": "[4]; [7]", "result": 17.7},
      {"measurement": "Kp at 24 h", "setting": "[4]; [6]", "result": 47.1},
      {"measurement": "concentration at 1 h", "setting": "[4]; [8]", "result": 312, "unit": "ng/g"},
      {"measurement": "concentration at 1 h", "setting": "[4]; [9]", "result": 693, "unit": "ng/g"},
      {"measurement": "concentration at 4 h", "setting": "[4]; [8]", "result": 1560, "unit": "ng/g"},
      {"measurement": "concentration at 4 h", "setting": "[4]; [9]", "result": 2580, "unit": "ng/g"},
      {"measurement": "concentration at 8 h", "setting": "[4]; [8]", "result": 762, "unit": "ng/g"},
      {"measurement": "concentration at 8 h", "setting": "[4]; [9]", "result": 1710, "unit": "ng/g"},
      {"measurement": "concentration at 24 h", "setting": "[4]; [8]", "result": 396, "unit": "ng/g"},
      {"measurement": "concentration at 1 h", "setting": "[4]; [10]", "result": 5.4, "unit": "ng/g"},
      {"measurement": "concentration at 4 h", "setting": "[4]; [10]", "result": 28.4, "unit": "ng/g"},
      {"measurement": "concentration at 8 h", "setting": "[4]; [10]", "result": 43.6, "unit": "ng/g"},
      {"measurement": "concentration at 24 h", "setting": "[4]; [10]", "result": 3.83, "unit": "ng/g"},
      {"measurement": "concentration at 24 h", "setting": "[4]; Sprague-Dawley, liver, oral 3 mg/kg Compound 10, read-out: Ct Liver", "result": 431, "unit": "ng/g"},
      {"measurement": "Kp at 24 h", "setting": "[4]; Sprague-Dawley, liver/plasma, oral 3 mg/kg Compound 10", "result": 121},
      {"measurement": "concentration at 1 h", "setting": "[4]; [11]", "result": 15, "unit": "ng/g"},
      {"measurement": "concentration at 4 h", "setting": "[4]; [11]", "result": 96.3, "unit": "ng/g"},
      {"measurement": "concentration at 8 h", "setting": "[4]; [11]", "result": 29.9, "unit": "ng/g"},
      {"measurement": "concentration at 24 h", "setting": "[4]; [11]", "result": 8.4, "unit": "ng/g"}
    ]}
  ]
}
